Results on 18 compounds are retold here after patent US11242347B2, “2-phenyl-3,4-dihydropyrrolo[2,1-Ff] [1,2,4]triazinone derivatives as phosphodiesterase inhibitors and uses thereof” (TOPADUR PHARMA AG, priority 2015, dated 2022).

The target of assay [1] is human phosphodiesterase-5 (PDE5 enzyme isolated from human platelets) (Homo sapiens (Human), UniProt O76074). The assay is described as follows: PDE5 assay: formation of 5′GMP from cGMP (SPA).
Method: Evaluation of the effects of compounds of the present invention on the activity of the human phosphodiesterase-5 quantified by measuring the formation of 5′GMP from cGMP using PDE5 enzyme isolated from human platelets.
Thereafter, the reaction is initiated by addition of the enzyme and the mixture is incubated for 60 min at 22° C.
For basal control measurements, the enzyme is omitted from the reaction mixture. Following incubation SPA beads are added. After 20 min at 22° C. under shaking, the amount of [3H]5′GMP is quantified with a scintillation counter (Topcount, Packard).
The standard inhibitory reference compound is dipyridamole, which is tested in each experiment at several concentrations to obtain an inhibition curve from which its IC50 value is calculated.
Assay [2] deals with human pulmonary artery smooth muscle cells (hPASMC). Description: Measurements of cGMP in human pulmonary artery smooth muscle cells (hPASMC). The settings on record: incubation 15 or 30 min; compared with sildenafil. It is filed as cell-based. The method, then: Human Pulmonary Artery Smooth Muscle Cells (hPASMC) were purchased from Clonetics™ Lonza (Lonza, reference number CC-2581) and cultured in Clonetics' smooth muscle growth medium (Clonetics™ SmGM™-2 with BulletKit™ growth factor supplements (Lonza, reference number CC-3182) at 37° C. in 5% CO2. Culture medium was replaced each 48 hours. Cells were grown in 75 cm^2 culture plates.
48 h before the experiments, cells were trypsinized (Trypsin kit One ReagentPack™ (CC-5034), Lonza) and plated in 96 well plates precoated with collagen I at 10000 cells per well. 24 h before the experiments culture medium was replaced by serum-reduced (0.5% FBS) medium.
Measurements of intracellular cGMP were performed using the Amersham cGMP EIA System (GE Healthcare, RPN226) following the instructions of the manufacturer. The assay has a sensitivity of 2 fmol cGMP per well. Briefly, incubations were terminated by adding Amersham's lysis buffer 1 and cells left for 10 min under agitation to ensure complete lysis. cGMP in samples was then acetylated using triethylamine and acetic anhydride and determined by a competitive ELISA. The ELISA is based on the competition between acetylated cGMP in cell culture lysates and a peroxidase-labelled cGMP conjugate for limited binding sites on a cGMP specific antiserum immobilized on pre-coated 96 well MTP. cGMP was determined based on a standard curve. […]

The test system of assay [3] is phenylephrine-precontracted rat aortic rings. The assay is described as follows: Isometric tension studies: relaxation of phenylephrine-precontracted rat aortic rings. To be noted: for IC40: concentration where 40% relaxation was achieved.
Method: After 1 week of acclimatization, rats were anesthetized. Appropriate depth of anesthesia was determined by the absence of the leg flexor response and the eyelid reflex. Then, the thorax was quickly opened by a midline incision, and the rat was sacrificed by cutting the heart and exsanguination.
Indomethacin (1 μM) was added to the saline solution.
Eligible rings were then washed several times to restore tension to the baseline level.
In some experiments, the entire length of the thoracic aorta was functionally denuded of the endothelial layer by gently scraping the luminal surface with a 1.5 mm glass rod. […] Rings were then washed several times to restore tension to the baseline level.
Indomethacin (1 μM) was added to the saline solution. […] Only vessels with at least 60% relaxation to 1 μM ACh from the tension with 300 nM were eligible.
The preparations were allowed to equilibrate for 60 min in Krebs with high glucose (25 mM) before contraction to a new single concentration of PE (300 nM).
Finally, sodium nitroprusside (0.1 mM) was added, in order to obtain maximum relaxation of arterial rings.
The amount of relaxation (percent values as means±SEM) was quantified as percent relaxation from the tension (plateau) achieved with phenylephrine.
Data are presented as mean±SEM. Statistical analysis of results has been performed by analysis of variance (ANOVA) either parametric or non-parametric (Kruskal-Wallis), followed by Bonferroni test or Dunn tests as appropriate (GraphPad Software Inc, San Diego, Calif., USA). Significance was accepted when P<0.05. Non-linear regression was conducted with GraphPad Software).
[4] abbreviates: 5.0E−09M, percent inhibition of the control enzyme activity.
Where [5] appears, read: Rattus norvegicus, High Glucose (25 mM).
The mark [6] stands for this setting: Rattus norvegicus, Intact Endothelium (E+).
The mark [7] stands for this setting: Rattus norvegicus, L-NAME (100 μM).
Where [8] appears, read: Rattus norvegicus, Without Endothelium.

Like-named read-outs stand apart in the source and are kept apart here.

Regarding `CCCc1c(C(O)CC#N)c(C)c2c(=O)[nH]c(-c3cc(S(=O)(=O)N4CCN(C)CC4)ccc3OCC)nn12` (centres unmarked) [Compound 1u, 3-(2-(2-ethoxy-5-((4-methylpiperazin-1-yl)sulfonyl)phenyl)-5-methyl-4-oxo-7-propyl-3,4-dihydropyrrolo[2,1-f][1,2,4]triazin-6-yl)-3-hydroxy propanenitrile], the midpoint of inhibition in assay [1], the IC50, lay at 1.5 nM. Also, the % inhibition (in general, the percentage by which the read-out fell short of the control) at 5.0E−09M in assay [1] (setting [4]) was 50.3%.

Regarding `CCCc1c(C=O)c(C)c2c(=O)[nH]c(-c3cc(S(=O)(=O)N4CCN(CCO)CC4)ccc3OCC)nn12` [Compound 1w, 2-(2-ethoxy-5-((4-(2-hydroxyethyl)piperazin-1-yl)sulfonyl)phenyl)-5-methyl-4-oxo-7-propyl-3,4-dihydropyrrolo[2,1-f][1,2,4]triazine-6-carbaldehyde], the “% inhibition at 5.0E−09M” value in assay [1] (setting [4]) was 75.5%.

Take `CCCc1c(/C=N/O)c(C)c2c(=O)[nH]c(-c3cc(S(=O)(=O)N4CCN(C)CC4)ccc3OCC)nn12` [Compound 1a, (E)-2-(2-ethoxy-5-((4-methylpiperazin-1-yl)sulfonyl)phenyl)-5-methyl-4-oxo-7-propyl-3,4-dihydropyrrolo[2,1-f][1,2,4]triazine-6-carbaldehyde oxime]: in assay [1] (setting [4]), the “% inhibition at 5.0E−09M” value was found to be 77.6%.

With `CCCOc1ccc(S(=O)(=O)N2CCC(CCO)CC2)cc1-c1nn2c(CCC)c(/C=N/O)c(C)c2c(=O)[nH]1` [Compound 1r, (E)-2-(5-((4-(2-hydroxyethyl)piperidin-1-yl)sulfonyl)-2-propoxyphenyl)-5-methyl-4-oxo-7-propyl-3,4-dihydropyrrolo[2,1-f][1,2,4]triazine-6-carbaldehyde oxime], in assay [2], the “cGMP formation in hPASMC, activity in words” value was “significantly higher activity as compared to the reference inhibitor sildenafil”. Further, the EC50 (as a rule, the concentration that produces a half-maximal response) in assay [3] (High Glucose (25 mM)) was found to be 2.79 nM; in assay [3] (Intact Endothelium (E+)), 0.0074 nM; in assay [3] (L-NAME (100 μM)) it was 0.935 nM; in assay [3] (Without Endothelium), 5.94 nM. The Emax – broadly, the size of the effect at its maximum, as opposed to the concentration needed – is reported as 51% in assay [3] (High Glucose (25 mM)), 91.9% in assay [3] (Intact Endothelium (E+)), 60.4% in assay [3] (L-NAME (100 μM)) and 39.8% in assay [3] (Without Endothelium). Also, the IC40 in assay [3] (High Glucose (25 mM)) was 89.295 nM; in assay [3] (Intact Endothelium (E+)), 0.0038 nM; in assay [3] (L-NAME (100 μM)) it was 2.982 nM; in assay [3] (Without Endothelium), above 1000 nM. Moreover, in assay [3] (intact endothelium (FIG. 2A)), the “relaxation of rat aortic rings, result in words” value was “more potent and effective than Sildenafil”.

For the compound `CCCc1c(/C=N/O)c(C)c2c(=O)[nH]c(-c3cc(S(=O)(=O)N4CCC(CCO)CC4)ccc3OCC)nn12` [Compound 1al, (E)-2-(2-ethoxy-5-(4-(2-hydroxyethyl)piperidin-1-ylsulfonyl)phenyl)-5-methyl-4-oxo-7-propyl-3,4-dihydropyrrolo[1,2-f][1,2,4]triazine-6-carbaldehyde oxime], the “% inhibition at 5.0E−09M” value in assay [1] (setting [4]) is 84.9%.

Consider “(E)-2-(4-(4-ethoxy-3-(6-((2-hydroxyethoxyimino)methyl)-5-methyl-4-oxo-7-propyl-3,4-dihydropyrrolo[1,2-f][1,2,4]triazin-2-yl)phenylsulfonyl)piperazin-1-yl)ethyl nitrate [Compound 1ak]”, for which the “% inhibition at 5.0E−09M” value in assay [1] turned out to be 8.3%.

Take `CCCOc1ccc(S(=O)(=O)N2CCN(C)CC2)cc1-c1nn2c(CCC)c(/C=N/OC)c(C)c2c(=O)[nH]1` [Compound 1o, (E)-5-methyl-2-(5-((4-methylpiperazin-1-yl)sulfonyl)-2-propoxyphenyl)-4-oxo-7-propyl-3,4-dihydropyrrolo[2,1-f][1,2,4]triazine-6-carbaldehyde O-methyl oxime]: in assay [1] (setting [4]), the “% inhibition at 5.0E−09M” value amounted to 83.0%.

Turning to `CCCOc1ccc(S(=O)(=O)N2CCN(CCO)CC2)cc1-c1nn2c(CCC)c(CO)c(C)c2c(=O)[nH]1` [Compound 1n, 2-(5-((4-(2-hydroxyethyl)piperazin-1-yl)sulfonyl)-2-propoxyphenyl)-6-(hydroxymethyl)-5-methyl-7-propylpyrrolo[2,1-f][1,2,4]triazin-4(3H)-one], the “% inhibition at 5.0E−09M” value in assay [1] (setting [4]) is listed as 33.0%.

Take `CCCc1c(CO)c(C)c2c(=O)[nH]c(-c3cc(S(=O)(=O)N4CCN(C)CC4)ccc3OCC)nn12` [Compound 1b, 2-(2-ethoxy-5-((4-methylpiperazin-1-yl)sulfonyl)phenyl)-6-(hydroxymethyl)-5-methyl-7-propylpyrrolo[2,1-f][1,2,4]triazin-4(3H)-one]: the IC50 – broadly, the concentration at which inhibition is half-maximal – in assay [1] is 12 nM. In addition, the “% inhibition at 5.0E−09M” value in assay [1] (setting [4]) was found to be 34.0%.

In the case of `CCCc1c(/C=N/O)c(C)c2c(=O)[nH]c(-c3cc(S(=O)(=O)N4CCN(CCO[N+](=O)[O-])CC4)ccc3OCC)nn12` [Compound 1af, (E)-2-(4-((4-ethoxy-3-(6-((hydroxyimino)methyl)-5-methyl-4-oxo-7-propyl-3,4-dihydropyrrolo[2,1-f][1,2,4]triazin-2-yl)phenyl)sulfonyl)piperazin-1-yl)ethyl nitrate], the “% inhibition at 5.0E−09M” value in assay [1] (setting [4]) is 74.5%.

As to `CCCc1c(/C=N/O)c(C)c2c(=O)[nH]c(-c3cc(S(=O)(=O)N4CCC(CCO[N+](=O)[O-])CC4)ccc3OCC)nn12` [Compound 1am, (E)-2-(1-(4-ethoxy-3-(6-((hydroxyimino)methyl)-5-methyl-4-oxo-7-propyl-3,4-dihydropyrrolo[1,2-f][1,2,4]triazin-2-yl)phenylsulfonyl)piperidin-4-yl)ethyl nitrate], in assay [1], the “% inhibition at 5.0E−09M” value is 25.1% and the 50% inhibitory concentration (IC50) worked out at 66 nM.

On to `CCCc1c(/C=N/O)c(C)c2c(=O)[nH]c(-c3cc(S(=O)(=O)N4CCN(CCCO[N+](=O)[O-])CC4)ccc3OCC)nn12` [Compound 1ao, (E)-3-(4-(4-ethoxy-3-(6-((hydroxyimino)methyl)-5-methyl-4-oxo-7-propyl-3,4-dihydropyrrolo[1,2-f][1,2,4]triazin-2-yl)phenylsulfonyl)piperazin-1-yl)propyl nitrate], for which the midpoint of inhibition in assay [1], the IC50, lay at 12 nM. Besides, the “% inhibition at 5.0E−09M” value in assay [1] (setting [4]) was 70.6%.

As to `CCCOc1ccc(S(=O)(=O)N2CCC(CCO[N+](=O)[O-])CC2)cc1-c1nn2c(CCC)c(/C=N\O)c(C)c2c(=O)[nH]1` [Compound 1aq, (Z)-2-(1-((3-(6-((hydroxyimino)methyl)-5-methyl-4-oxo-7-propyl-3,4-dihydropyrrolo[2,1-f][1,2,4]triazin-2-yl)-4-propoxyphenyl)sulfonyl)piperidin-4-yl)ethyl nitrate], in assay [1] (setting [4]), the “% inhibition at 5.0E−09M” value turned out to be 1.3%.

For the compound “(E)-2-(4-(4-ethoxy-3-(6-((methoxyimino)methyl)-5-methyl-4-oxo-7-propyl-3,4-dihydropyrrolo[1,2-f][1,2,4]triazin-2-yl)phenylsulfonyl)piperazin-1-yl)ethyl nitrate [Compound 1ai]”, the “% inhibition at 5.0E−09M” value in assay [1] was 0.3%.

Regarding `CCCc1c(C(O)CC(=O)NO)c(C)c2c(=O)[nH]c(-c3cc(S(=O)(=O)N4CCN(C)CC4)ccc3OCC)nn12` (centres unmarked) [Compound 1t, 3-(2-(2-ethoxy-5-((4-methylpiperazin-1-yl)sulfonyl)phenyl)-5-methyl-4-oxo-7-propyl-3,4-dihydropyrrolo[2,1-f][1,2,4]triazin-6-yl)-N,3-dihydroxy propanamide], the “% inhibition at 5.0E−09M” value in assay [1] (setting [4]) stood at 44.9%.

For `CCCc1c(/C=N/O)c(C)c2c(=O)[nH]c(-c3cc(S(=O)(=O)N4CCN(CCCO)CC4)ccc3OCC)nn12` [Compound 1an, (E)-2-(2-ethoxy-5-(4-(3-hydroxypropyl)piperazin-1-ylsulfonyl)phenyl)-5-methyl-4-oxo-7-propyl-3,4-dihydropyrrolo[1,2-f][1,2,4]triazine-6-carbaldehyde oxime], the “% inhibition at 5.0E−09M” value in assay [1] (setting [4]) stood at 84.9%.

With `CCCc1nn(C)c2c(=O)[nH]c(-c3cc(S(=O)(=O)N4CCN(C)CC4)ccc3OCC)nc12` [sildenafil, reference compound], the IC40 was 826.989 nM in assay [3] (High Glucose (25 mM)), 0.194 nM in assay [3] (Intact Endothelium (E+)), 95.659 nM in assay [3] (L-NAME (100 μM)) and above 1000 nM in assay [3] (Without Endothelium). The half-maximal effective concentration (EC50) turned out to be 20.4 nM in assay [3] (setting [5]), 0.186 nM in assay [3] (setting [6]), 5.8 nM in assay [3] (setting [7]) and 20.6 nM in assay [3] (setting [8]). For the same compound, the Emax in assay [3] (setting [5]) worked out at 49.1%; in assay [3] (setting [6]), 79.3%; in assay [3] (setting [7]), 51.4%; in assay [3] (setting [8]) it was 36.4%.

`CCCc1cc(C)c2c(=O)[nH]c(-c3cc(S(=O)(=O)N4CCN(CCCO)CC4)ccc3OCC)nn12` [Compound 1ap, 2-(2-ethoxy-5-((4-(3-hydroxypropyl)piperazin-1-yl)sulfonyl)phenyl)-5-methyl-7-propylpyrrolo [2,1-f][1,2,4]triazin-4(3H)-one]: the IC50 in assay [1] was determined as 2.8 nM. The “% inhibition at 5.0E−09M” value in assay [1] (setting [4]) was 69.2%.
